The results in this text go back to patent US20060287353A1, “Method for preventing or treating ischemia-or hemorrhage-induced brain damage using a macrolide compound” (Astellas Pharma Inc., priority 1999, published 2006).

Each structure is given as a SMILES string.

Test [1] has as its system rat endothelin-induced MCA occlusion model. Nature of the test: Neuroprotective efficacy in the rat endothelin-induced MCA occlusion model (ET-1 model of stroke). It counts as in vivo. Conditions: five minutes post-lesion, male Sprague Dawley rats, damage assessed three days post-lesion. As for the experimental part: Neuroprotective efficacy of the compound (I) in the rat endothelin-induced MCA occlusion model
The compound (I) was dissolved in a polyoxyethylene-hydrogenated castor oil 60/ethanol (400mg/1 ml) solution and administered at 1 and 3 mg.kg^−1. All drugs and relevant control were administered in a volume of 2 ml. kg^−1. MCA occlusion by the endothelin method was performed on male Sprague Dawley rats (271- 324g) as described in U.S. Pat. No. 5,648,351. All drugs were infused through the i.v. catheter at 1 ml min^−1, five minutes post-lesion. The animals were sacrificed by cardiac infusion under barbiturate anaesthesia. Volume of lesion was calculated from measured areas of damage (as assessed three days post-lesion) using the Trapezoid Rule. Results are presented as volume (mm^3)±SEM. Statistical analysis was performed using ANOVA and post hoc Student-Newman-Keuls test, where p<0.05 was set as an acceptable level for significance.

The nature of test [2]: Immunosuppressive activity (statement, no method described). The settings on record: stated in text without test details.

`COC1CC(/C=C(\C)C2OC(=O)C3CCCCN3C(=O)C(=O)C3(O)OC(C(OC)CC(C)C/C(C)=C/C(CC(C)=O)C(=O)CC(O)C2C)C(OC)CC3C)CCC1O` (stereo not drawn) [compound (I)]: the “protection of the cortex (lesion volume) against vehicle” value came to 61% in test [1] (1 mg.kg^-1 i.v., n=14) and 42% in test [1] (3 mg.kg^-1 i.v., n=9). Also, the immunosuppressive activity entry in test [2] is listed as “no immunosuppressive activity”.
